What was measured:
[1] = xn = mol fraction of the nth substance listed; conditions: 101 kPa, Liquid; for viscosity: Capillary tube (Ostwald / Ubbelohde) method; for mass density: Vibrating tube method
[2] = refractive index (Na D-line) (dimensionless); xn = mol fraction of the nth substance listed; conditions: 101 kPa, Liquid, Standard Abbe refractometry

C1C[C@@H]2[C@H]3CC[C@H](C3)[C@@H]2C1 [exo-tetrahydrodicyclopentadiene] + C1CCCCC1
Conditions | mass density, [1] [kg/m3] | refractive index, [2] | viscosity, [1] [mPa·s]
293.15 K, x1 = 0.0998 | 799.53 | 1.4357 | 1.13
293.15 K, x1 = 0.2006 | 819.11 | 1.4426 | 1.296
293.15 K, x1 = 0.3003 | 837.1 | 1.4495 | 1.462
293.15 K, x1 = 0.3996 | 853.82 | 1.4564 | 1.633
293.15 K, x1 = 0.4987 | 869.42 | 1.4624 | 1.814
293.15 K, x1 = 0.6005 | 884.43 | 1.4683 | 2.016
293.15 K, x1 = 0.7002 | 898.3 | 1.4732 | 2.231
293.15 K, x1 = 0.8008 | 911.5 | 1.4781 | 2.463
293.15 K, x1 = 0.9 | 923.87 | 1.4829 | 2.72
293.15 K, x1 = 1 | 935.72 | 1.4874 | 2.992
298.15 K, x1 = 0.0998 | 794.92 | – | 1.032
298.15 K, x1 = 0.2006 | 814.56 | – | 1.18
298.15 K, x1 = 0.3003 | 832.65 | – | 1.327
298.15 K, x1 = 0.3996 | 849.45 | – | 1.481
298.15 K, x1 = 0.4987 | 865.15 | – | 1.645
298.15 K, x1 = 0.6005 | 880.23 | – | 1.828
298.15 K, x1 = 0.7002 | 894.2 | – | 2.024
298.15 K, x1 = 0.8008 | 907.48 | – | 2.236
298.15 K, x1 = 0.9 | 919.92 | – | 2.466
298.15 K, x1 = 1 | 931.84 | – | 2.71
303.15 K, x1 = 0.0998 | 790.27 | 1.4305 | 0.948
303.15 K, x1 = 0.2006 | 809.99 | 1.4373 | 1.08
303.15 K, x1 = 0.3003 | 828.19 | 1.4449 | 1.212
303.15 K, x1 = 0.3996 | 845.07 | 1.4512 | 1.351
303.15 K, x1 = 0.4987 | 860.86 | 1.4582 | 1.5
303.15 K, x1 = 0.6005 | 876.06 | 1.4633 | 1.668
303.15 K, x1 = 0.7002 | 890.08 | 1.4689 | 1.846
303.15 K, x1 = 0.8008 | 903.43 | 1.4739 | 2.037
303.15 K, x1 = 0.9 | 915.95 | 1.4789 | 2.248
303.15 K, x1 = 1 | 927.94 | 1.4831 | 2.467
308.15 K, x1 = 0.0998 | 785.6 | – | 0.874
308.15 K, x1 = 0.2006 | 805.41 | – | 0.993
308.15 K, x1 = 0.3003 | 823.69 | – | 1.113
308.15 K, x1 = 0.3996 | 840.68 | – | 1.239
308.15 K, x1 = 0.4987 | 856.56 | – | 1.375
308.15 K, x1 = 0.6005 | 871.85 | – | 1.528
308.15 K, x1 = 0.7002 | 885.97 | – | 1.691
308.15 K, x1 = 0.8008 | 899.4 | – | 1.866
308.15 K, x1 = 0.9 | 911.98 | – | 2.056
308.15 K, x1 = 1 | 924.02 | – | 2.255
313.15 K, x1 = 0.0998 | 780.9 | 1.4238 | 0.808
313.15 K, x1 = 0.2006 | 800.82 | 1.4319 | 0.917
313.15 K, x1 = 0.3003 | 819.19 | 1.439 | 1.026
313.15 K, x1 = 0.3996 | 836.28 | 1.4456 | 1.141
313.15 K, x1 = 0.4987 | 852.26 | 1.453 | 1.267
313.15 K, x1 = 0.6005 | 867.63 | 1.4583 | 1.407
313.15 K, x1 = 0.7002 | 881.85 | 1.4642 | 1.555
313.15 K, x1 = 0.8008 | 895.35 | 1.4689 | 1.715
313.15 K, x1 = 0.9 | 907.1 | 1.4737 | 1.888
313.15 K, x1 = 1 | 920.11 | 1.4786 | 2.069
318.15 K, x1 = 0.0998 | – | – | 0.751
318.15 K, x1 = 0.2006 | – | – | 0.848
318.15 K, x1 = 0.3003 | – | – | 0.949
318.15 K, x1 = 0.3996 | – | – | 1.055
318.15 K, x1 = 0.4987 | – | – | 1.169
318.15 K, x1 = 0.6005 | – | – | 1.298
318.15 K, x1 = 0.7002 | – | – | 1.435
318.15 K, x1 = 0.8008 | – | – | 1.581
318.15 K, x1 = 0.9 | – | – | 1.741
318.15 K, x1 = 1 | – | – | 1.907

Reference: the NIST ThermoML archive (doi:10.1021/je400529k)
